The record followed here is patent US20230063457A1, “DNA-PK INHIBITING COMPOUNDS” (Provincial Health Services Authority, priority 2019, published 2023).

For experiment [1], the target named is DNA-PK kinase (Homo sapiens, UniProt P78527). As to the kind of experiment: Inhibition of DNA-PK kinase activity (ADP-Glo). The experiment is classed as biochemical. Particulars: averaged values over all measurements on all batches; 150 μM ATP, 1 hour at 25° C. The method, then: Inhibition of DNA-PK Kinase Activity Assay buffer was 50 mM Hepes pH 7.5 containing 0.1 mg/ml BSA (albumin from bovine serum), 50 μM DTT (dithiothreitol), 20 mM MgCl2 and 10 μg/ml calf thymus DNA (activation buffer). Kinase reaction was carried out in OptiPlate 384 plates (PerkinElmer 6007299). All compounds tested were dissolved in dimethyl sulfoxide (DMSO) and further dilutions were made in assay buffer. Final DMSO concentration was 1% (v/v). Pre-incubation consisted of compound (1% DMSO in control and blank wells) and 24 ng/well DNA-PK kinase to allow the compounds to bind the enzyme (with buffer in the blank wells) for 15 minutes; after this time 150 μM Adenosine-5′-triphosphate (ATP) and 0.2 μg/μl DNA-PK substrate were added to commence the kinase reaction. Incubations were carried out for 1 hour at 25° C. Kinase activity was determined by using ADP-Glo™ reagent from Promega according to the manufacturer's instructions. The light generated was measured using a luminometer (EnVision, PerkinElmer). Signal obtained in the wells containing blank samples was subtracted from all other wells and IC50 values were determined by fitting a sigmoidal curve to % inhibition of control versus Log10 compound concentration.

For experiment [2], the target named is T1, Phospho-DNA-PK in FaDu Cells (Homo sapiens, UniProt P78527).
T1 construct: host or cells: FaDu
Kind of experiment: Effect of compounds on phospho-DNA-PK in FaDu cells (MesoScale sandwich immunoassay). Format: cell-based. Particulars: 1 hour pre-incubation, 1 μg/ml Neocarzinostatin 2 hours, averaged values, read-out: MSD FaDu IC50. The method, then: Effect of Compounds on Phospho-DNA-PK in FaDu Cells
All compounds tested were dissolved in DMSO and further dilutions were made in culture medium. Final DMSO concentration was 0.3% (v/v). The human FaDu cells (ATCC) were cultured in MEM medium supplemented with Glutamax and 10% fetal calf serum (PAA). Cells were routinely maintained at densities of 0.2×10^6 cells per ml at 37° C. in a humidified 5% CO2, 95% air atmosphere. Cells were passaged twice a week, splitting back to obtain the low density. Cells were seeded in 96 well plates (Corning 3904) at 1×10^6 cells per ml media in a volume of 50 μl per well. Seeded cells were incubated at 37° C. in a humidified 5% CO2, 95% air atmosphere for 24 hours. Compounds were added (25 μl) to the cells and pre-incubated for 1 hour. 1 μg/ml DNA-damaging agent Neocarzinostatin (NCS) was added (25 μl) to a final volume of 100 μl and incubated for 2 hours at 37° C. in a humidified 5% CO2, 95% air atmosphere. After this period of time plates were removed from the incubator and the 100 μl dilutions were removed from the wells gently, prior to the addition of 75 μl cold RIPA lysis buffer with protease and phosphatase inhibitors to achieve the cells lysis, followed by shaking on a plate shaker at 4° C. for 30 minutes. At the end of this incubation, lysate was assessed for phospho-DNA-PK levels by sandwich immune-assay carried out in anti-mouse antibody coated MesoScale plates. […] Signal obtained in the wells containing blank samples was subtracted from all other wells and IC50 values were determined by fitting a sigmoidal curve to % inhibition of control versus Logo compound concentration.

Take `CN(C)S(=O)(=O)n1ccnc1C1CCN(c2nc(N3CCOCC3)cc3ncccc23)CC1` [Example 14]: the figures for the IC50 in experiment [1] and in experiment [2] were 73 nM and 4470 nM, respectively.
The corresponding values for `c1cnc(NCC2CCN(c3nc(N4CCOCC4)cc4ncccc34)C2)nc1` (stereo not drawn) [Example 11] are 50 nM and 3500 nM.
For `c1cnc2cc(N3CCOCC3)nc(OC[C@H]3CC[C@@H](c4ncn[nH]4)CC3)c2c1` [Example 73] the same measures were 55 nM and 1730 nM.
For `c1cnc2cc(N3CCOCC3)nc(OCC3CCN(c4ncn[nH]4)CC3)c2c1` [Parent compound 154] the same measures were 26 nM and 1070 nM.
For the compound `COC(=O)c1cc(N)nc(NCC2CCN(c3nc(N4CCOCC4)cc4ncccc34)CC2)n1` [Example 100], the figures for the IC50 in experiment [1] and in experiment [2] were 32 nM and 2360 nM, respectively.
For `c1cnc(NCCC2CCN(c3nc(N4CCOCC4)cc4ncccc34)CC2)nc1` [Example 130], the IC50 in experiment [1] is 48 nM; in experiment [2], 2530 nM.
The corresponding values for `c1cnnc(NCC2CCN(c3nc(N4CCOCC4)cc4ncccc34)CC2)c1` [Parent compound 131] are 63 nM and 7310 nM.
As for `CS(=O)(=O)N1CCC(Oc2nc(N3CCOCC3)cc3ncccc23)CC1` [Example 143], the results for the IC50 in experiment [1] and in experiment [2] were 110 nM and 1800 nM, respectively.
In the case of `c1cnc2cc(N3CCOCC3)nc(O[C@H]3C[C@@H](c4ncc[nH]4)C3)c2c1` [Example 87], the half-inhibitory concentration (IC50) in experiment [1] was 51 nM; in experiment [2], 1160 nM.
For `c1cnc2cc(N3CCOCC3)nc(N3CCC(CNc4ccncn4)CC3)c2c1` [Example 120] the same measures were 140 nM and 3180 nM.
For `Cc1cnc(NCC2CCN(c3nc(N4CCOCC4)cc4ncccc34)CC2)nc1` [Example 102], the results for the IC50 in experiment [1] and in experiment [2] were 39 nM and 905 nM, respectively.
For `c1cnc(N2CCC(Oc3nc(N4CCOCC4)cc4ncccc34)CC2)nc1` [Example 127] the same measures were 203 nM and 13800 nM.
Consider `Cn1cc([C@H]2CC[C@@H](Oc3nc(N4CCOCC4)cc4ncc(O)cc34)CC2)cn1` [Example 166], for which the IC50 in experiment [1] came to 4 nM; in experiment [2], 190 nM.
For `c1cnc(NC2CCN(c3nc(N4CCOCC4)cc4ncccc34)CC2)nc1` [Example 16] the same measures were 139 nM and 18600 nM.
For `c1cnc2cc(N3CCOCC3)nc(N3CCC(CNc4nnc[nH]4)CC3)c2c1` [Parent compound 153] the same measures were 30 nM and 2490 nM.
The corresponding values for `c1cnc(NCCCCOc2nc(N3CCOCC3)cc3ncccc23)nc1` [Example 8] are 279 nM and 6660 nM.
Consider `c1cnc(N2CCC3(CCN(c4nc(N5CCOCC5)cc5ncccc45)C3)C2)nc1` (stereo not drawn) [Example 22], for which the values for the IC50 in experiment [1] and in experiment [2] were 198 nM and 1550 nM, respectively.
For the compound `Cc1nnc([C@H]2CC[C@@H](Oc3nc(N4CCOCC4)cc4ncccc34)CC2)[nH]1` [Example 70], the IC50 in experiment [1] turned out to be 1 nM; in experiment [2], 113 nM.
In the case of `N#Cc1ccnc(NCC2CCN(c3nc(N4CCOCC4)cc4ncccc34)CC2)n1` [Example 108], the IC50 worked out at 69 nM in experiment [1] and 3380 nM in experiment [2].
For `COc1cnc2cc(N3CCOCC3)nc(O[C@H]3CC[C@@H](n4cc(F)cn4)CC3)c2c1` [Parent compound 170] the same measures were 8 nM and 232 nM.
The corresponding values for `CC(C)(C)OC(=O)N1CCN(c2nc(N3CCOCC3)cc3ncccc23)CC1` [Example 19] are 159 nM and 6560 nM.
The corresponding values for `Fc1cnn([C@H]2CC[C@@H](Oc3nc(N4CCOCC4)cc4ncccc34)CC2)c1` [Example 78] are 4 nM and 195 nM.
Turning to `c1cnc2cc(N3CCOCC3)nc(O[C@H]3CC[C@@H](n4ccnc4)CC3)c2c1` [Example 77], the IC50 in experiment [1] was 6 nM; in experiment [2], 104 nM.
For `N#Cc1cnc(NCC2CCN(c3nc(N4CCOCC4)cc4ncccc34)CC2)nc1` [Example 107] the same measures were 66 nM and 2370 nM.
The corresponding values for `c1cnc2cc(N3CCOCC3)nc(N[C@H]3CC[C@@H](c4nnc[nH]4)CC3)c2c1` [Example 58] are 27 nM and 1590 nM.
`Cc1noc([C@H]2CC[C@@H](Oc3nc(N4CCOCC4)cc4ncccc34)CC2)n1` [Example 5]: the IC50 stood at 21 nM in experiment [1] and 1370 nM in experiment [2].
For `Oc1ccnc(NCC2CCN(c3nc(N4CCOCC4)cc4ncccc34)CC2)n1` [Example 113] the same measures were 114 nM and 6600 nM.
Turning to `Cc1cc(C)nc(NCC2CCN(c3nc(N4CCOCC4)cc4ncccc34)CC2)n1` [Example 117], the IC50 in experiment [1] is 125 nM; in experiment [2], 1930 nM.
The corresponding values for `Oc1cnc2cc(N3CCOCC3)nc(O[C@H]3CC[C@@H](c4ccccc4)CC3)c2c1` [Example 165] are 31 nM and 1170 nM.
For `CS(=O)(=O)[C@H]1CC[C@@H](Oc2nc(N3CCOCC3)cc3ncccc23)CC1` [Example 82] the same measures were 141 nM and 1890 nM.
For `Oc1cnc2cc(N3CCOCC3)nc(O[C@H]3CC[C@@H](c4cccs4)CC3)c2c1` [Example 164] the same measures were 58 nM and 3740 nM.
In the case of `c1cncc(NCC2CCN(c3nc(N4CCOCC4)cc4ncccc34)CC2)c1` [Example 133], the IC50 in experiment [1] is 155 nM; in experiment [2] it was 11400 nM.
Consider `NC(=O)[C@H]1CC[C@@H](Oc2nc(N3CCOCC3)cc3ncccc23)CC1` [Example 3], for which the IC50 was 9 nM in experiment [1] and 361 nM in experiment [2].
For `c1cnc(NC2CC3(CCN(c4nc(N5CCOCC5)cc5ncccc45)C3)C2)nc1` (mixture of isomers) [Example 1] the same measures were 82 nM and 832 nM.
`c1cnc(NCc2cnn(-c3nc(N4CCOCC4)cc4ncccc34)c2)nc1` [Example 24]: the IC50 in experiment [1] was found to be 213 nM; in experiment [2], 9350 nM.
The corresponding values for `CC1CN(c2ncn[nH]2)CCC1Oc1nc(N2CCOCC2)cc2ncccc12` (stereo not drawn) [Example 157] are 160 nM and 3000 nM.
For `c1ccc(NCC2CCN(c3nc(N4CCOCC4)cc4ncccc34)CC2)nc1` [Example 122] the same measures were 185 nM and 4360 nM.
For `N#Cc1cccnc1NCC1CCN(c2nc(N3CCOCC3)cc3ncccc23)CC1` [Example 115], the IC50 in experiment [1] was 120 nM; in experiment [2], 7990 nM.
For `Fc1c[nH]c([C@H]2CC[C@@H](Oc3nc(N4CCOCC4)cc4ncccc34)CC2)n1` [Example 76] the same measures were 11 nM and 143 nM.
For `N#Cc1cnc(NCC2CCN(c3nc(N4CCOCC4)cc4ncccc34)CC2)nc1N` [Example 103] the same measures were 45 nM and 3700 nM.
For `CS(=O)(=O)N1CCN(c2nc(N3CCOCC3)cc3ncccc23)CC1` [Example 144] the same measures were 117 nM and 2890 nM.
For the compound `c1cnc(NCC2CN(c3nc(N4CCOCC4)cc4ncccc34)C2)nc1` [Parent compound 98], the IC50 worked out at 36 nM in experiment [1] and 702 nM in experiment [2].
